Experimental data reported in patent US11780840B2 (Incyte Corporation, priority 2020, dated 2023).

Columns and labels:
[1] = biological target: T1, pseudo-kinase domain (JH2, amino-acids 536-812 with 3 surface mutations W659A, W777A, F794H) of human V617F mutant JAK2 (Homo sapiens, UniProt O60674, F794H/V617F/W659A/W777A); test: JAK2 LanthaScreen JH2-V617F Binding Assay; conditions: JAK2 JH2-V617F (0.26 nM), 50 nM Fluorescent JAK2-JH2 Tracer, 1 hour at 25° C.; read-out: JH2 BIND V617F
T1 construct: pseudo-kinase domain (JH2, amino-acids 536-812 with 3 surface mutations W659A, W777A, F794H); His (C); Avi (biotinylated) (C); purchased BPS Bioscience 79498; host or cells: baculovirus expression system
T1 sequence (O60674 536-812 V617F/W659A/W777A/F794H): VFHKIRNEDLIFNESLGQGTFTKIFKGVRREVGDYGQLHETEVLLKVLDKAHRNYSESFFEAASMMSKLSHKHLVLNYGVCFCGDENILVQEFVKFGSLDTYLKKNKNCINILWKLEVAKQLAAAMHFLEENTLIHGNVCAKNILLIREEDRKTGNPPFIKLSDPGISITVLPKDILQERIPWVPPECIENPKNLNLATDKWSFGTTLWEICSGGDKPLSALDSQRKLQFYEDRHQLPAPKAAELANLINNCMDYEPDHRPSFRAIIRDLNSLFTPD
Method: Example C. JAK2 LanthaScreen JH2-V617F Binding Assay
(§1) JAK2 JH2-V617F binding assay utilizes pseudo-kinase domain (JH2, amino-acids 536-812 with 3 surface mutations W659A, W777A, F794H) of human V617F mutant JAK2 expressed as C-terminal His-Avi-tagged, biotinylated protein in a baculovirus expression system (BPS Bioscience, Catalog #79498). The assay was conducted in black 384-well polystyrene plates in a final reaction volume of 20 μL. JAK2 JH2-V617F (0.26 nM) was incubated with compounds (100 nL serially diluted in DMSO) in the presence of 50 nM Fluorescent JAK2-JH2 Tracer (MedChem Express Catalog #HY-102055) and 0.25 nM Streptavidin-Tb cryptate (Cisbio Part #610SATLB) in assay buffer (50 mM Tris, pH=7.5, 10 mM MgCl2, 0.01% Brij-35, 0.1% BSA, 1 mM EGTA, 5% Glycerol and 5 mM DTT). Non-specific binding was accessed in the presence of 2 mM ATP. After incubation for 1 hour at 25° C., LanthaScreen signals were read on a PHERAstar FS plate reader (BMG LABTECH). Data was analyzed with IDBS XLfit and GraphPad Prism 5.0 software using a four parameter dose response curve to determine IC50 for each compound.

[2] = biological target: T2, pseudo-kinase domain (JH2, amino-acids 536-812 with 3 surface mutations W659A, W777A, F794H) of human Wild Type JAK2 (Homo sapiens, UniProt O60674, F794H/W659A/W777A); test: JAK2 LanthaScreen JH2-WT Binding Assay; conditions: JAK2 JH2-WT (0.145 nM), 50 nM Fluorescent JAK2-JH2 Tracer, 1 hour at 25° C.; read-out: JH2 BIND WT
T2 construct: pseudo-kinase domain (JH2, amino-acids 536-812 with 3 surface mutations W659A, W777A, F794H); His (C); Avi (biotinylated) (C); purchased BPS Bioscience 79463; host or cells: baculovirus expression system
T2 sequence (O60674 536-812 W659A/W777A/F794H): as the sequence (O60674 536-812 V617F/W659A/W777A/F794H) above, with F82V counted along it
Method: Example B. JAK2 LanthaScreen JH2-WT Binding Assay
as §1, with “JH2-WT” for “JH2-V617F”, “Wild Type” for “V617F mutant”, “#79463).” for “#79498).”, “JH2-WT (0.145” for “JH2-V617F (0.26”

[3] = biological target: T3, catalytic domain (JH1, amino acids 826-1132) of human JAK2 (Homo sapiens, UniProt O60674); test: JAK2 LanthaScreen JH1 Binding Assay; conditions: JAK2 JH1 (1.5 nM), 50 nM fluorescent JAK2-JH1 tracer, 2 hours at 25° C.; read-out: JH1 BIND
T3 construct: catalytic domain (JH1, amino acids 826-1132) of human JAK2; FLAG (N); purchased Carna Biosciences 08-445-20N; host or cells: baculovirus expression system
T3 sequence (O60674 826-1132): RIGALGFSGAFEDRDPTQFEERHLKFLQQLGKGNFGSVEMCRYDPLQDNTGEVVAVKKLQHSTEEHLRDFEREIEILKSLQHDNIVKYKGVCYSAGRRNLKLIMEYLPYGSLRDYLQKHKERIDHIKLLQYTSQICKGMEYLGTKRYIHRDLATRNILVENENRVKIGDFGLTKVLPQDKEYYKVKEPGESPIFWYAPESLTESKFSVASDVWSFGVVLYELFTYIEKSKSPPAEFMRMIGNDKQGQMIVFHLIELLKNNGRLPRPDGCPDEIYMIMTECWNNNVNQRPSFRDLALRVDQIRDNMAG
Method: Example A. JAK2 LanthaScreen JH1 Binding Assay
JAK2 JH1 binding assay utilizes catalytic domain (JH1, amino acids 826-1132) of human JAK2 expressed as N-terminal FLAG-tagged, biotinylated protein in a baculovirus expression system (Carna Biosciences, Product #08-445-20N). The assay was conducted in black 384-well polystyrene plates in a final reaction volume of 20 μL. JAK2 JH1 (1.5 nM) was incubated with compounds (100 nL serially diluted in DMSO) in the presence of 50 nM fluorescent JAK2-JH1 tracer and 0.5 nM Streptavidin-Tb cryptate (Cisbio Part #610SATLB) in assay buffer (50 mM Tris, pH=7.5, 10 mM MgCl2, 0.01% Brij-35, 0.1% BSA, 1 mM EGTA, 5% Glycerol and 5 mM DTT). Non-specific binding was accessed in the presence of 2 mM ATP. After incubation for 2 hours at 25° C., LanthaScreen signals were read on a PHERAstar FS plate reader (BMG LABTECH). Data was analyzed with IDBS XLfit and GraphPad Prism 5.0 software using a four parameter dose response curve to determine IC50 for each compound.

Cn1c(=O)n(-c2ccccc2)c2c3cc(-c4ccc(CN5CCC(S(C)(=O)=O)CC5)cc4)[nH]c3ncc21 [Example 1, 3-Methyl-7-(4-((4-(methylsulfonyl)piperidin-1-yl)methyl)phenyl)-1-phenyl-3,6-dihydroimidazo[4,5-d]pyrrolo[2,3-b]pyridin-2(1H)-one]
IC50 [1]: 100 to 500 nM | IC50 [2]: 10 to 100 nM | IC50 [3]: 10 to 100 nM

COc1ccc(-n2c(=O)n(C)c3cnc4[nH]c(-c5ccc(CN6CCC(S(C)(=O)=O)CC6)cc5)cc4c32)cc1 [Example 2, 1-(4-Methoxyphenyl)-3-methyl-7-(4-((4-(methylsulfonyl)piperidin-1-yl)methyl)phenyl)-3,6-dihydroimidazo[4,5-d]pyrrolo[2,3-b] pyridin-2(1H)-one]
IC50 [1]: 100 to 500 nM | IC50 [2]: 10 to 100 nM | IC50 [3]: 10 to 100 nM

Cn1c(=O)n(-c2ccc3occc3c2)c2c3cc(-c4ccc(CN5CCC(S(C)(=O)=O)CC5)cc4)[nH]c3ncc21 [Example 3, 1-(Benzofuran-5-yl)-3-methyl-7-(4-((4-(methylsulfonyl)piperidin-1-yl)methyl)phenyl)-3,6-dihydroimidazo[4,5-d]pyrrolo[2,3-b]pyridin-2(1H)-one]
IC50 [1]: 10 to 100 nM | IC50 [2]: 10 to 100 nM | IC50 [3]: 10 to 100 nM

CS(=O)(=O)C1CCN(Cc2ccc(-c3cc4c(ncc5[nH]c(=O)n(-c6ccccc6)c54)[nH]3)cc2)CC1 [Example 4, 7-(4-((4-(Methylsulfonyl)piperidin-1-yl)methyl)phenyl)-1-phenyl-3,6-dihydroimidazo [4,5-d]pyrrolo[2,3-b]pyridin-2(1H)-one]
IC50 [1]: 100 to 500 nM | IC50 [2]: 100 to 500 nM | IC50 [3]: 10 to 100 nM

CS(=O)(=O)C1CCN(Cc2ccc(-c3cc4c(ncc5c4n(-c4ccccc4)c(=O)n5CCO)[nH]3)cc2)CC1 [Example 5, 3-(2-Hydroxyethyl)-7-(4-((4-(methylsulfonyl)piperidin-1-yl)methyl)phenyl)-1-phenyl-3,6-dihydroimidazo[4,5-d]pyrrolo[2,3-b]pyridin-2(1H)-one]
IC50 [1]: > 1000 nM | IC50 [2]: > 1000 nM | IC50 [3]: 100 to 500 nM

Cn1c(=O)n(-c2ccccc2)c2c3cc(-c4cnn(C5CCS(=O)(=O)C5)c4)[nH]c3ncc21 (stereo not drawn) [Example 6, 7-(1-(1,1-Dioxidotetrahydro-thiophen-3-yl)-1H-pyrazol-4-yl)-3-methyl-1-phenyl-3,6-dihydroimidazo[4,5-d]pyrrolo[2,3-b]pyridin-2(1H)-one]
IC50 [1]: 100 to 500 nM | IC50 [2]: 100 to 500 nM | IC50 [3]: 10 to 100 nM

CN(CCCS(C)(=O)=O)Cc1ccc(-c2cc3c(ncc4c3n(-c3ccccc3)c(=O)n4C)[nH]2)cc1 [Example 7, 3-Methyl-7-(4-((methyl(3-(methylsulfonyl)propyl)amino)methyl)phenyl)-1-phenyl-3,6-dihydroimidazo [4,5-d]pyrrolo[2,3-b]pyridin-2(1H)-one]
IC50 [1]: 100 to 500 nM | IC50 [2]: 100 to 500 nM | IC50 [3]: 10 to 100 nM

Cn1c(=O)n(-c2ccccc2)c2c3cc(-c4ccc(CN5CCC(S(C)(=O)=O)CC5)c(F)c4)[nH]c3ncc21 [Example 8, 7-(3-Fluoro-4-((4-(methylsulfonyl)piperidin-1-yl)methyl)phenyl)-3-methyl-1-phenyl-3,6-dihydroimidazo[4,5-d]pyrrolo[2,3-b]pyridin-2(1H)-one]
IC50 [1]: 100 to 500 nM | IC50 [2]: 10 to 100 nM | IC50 [3]: 10 to 100 nM

CCN1CCN(c2ccc(-c3cc4c(ncc5c4n(-c4ccccn4)c(=O)n5C)[nH]3)cc2)CC1 [Example 9, 7-(4-(4-Ethylpiperazin-1-yl)phenyl)-3-methyl-1-(pyridin-2-yl)-3,6-dihydroimidazo[4,5-d]pyrrolo[2,3-b]pyridin-2(1H)-one]
IC50 [1]: > 1000 nM | IC50 [2]: > 1000 nM | IC50 [3]: > 1000 nM

Cn1c(=O)n(C2CCCCC2)c2c3cc(-c4ccc(CN5CCC(S(C)(=O)=O)CC5)cc4)[nH]c3ncc21 [Example 10, 1-Cyclohexyl-3-methyl-7-(4-((4-(methylsulfonyl)piperidin-1-yl)methyl)phenyl)-3,6-dihydroimidazo[4,5-d]pyrrolo[2,3-b]pyridin-2(1H)-one]
IC50 [1]: 100 to 500 nM | IC50 [2]: 10 to 100 nM | IC50 [3]: 10 to 100 nM

Cn1c(=O)n(C(C)(C)C)c2c3cc(-c4ccc(CN5CCC(S(C)(=O)=O)CC5)cc4)[nH]c3ncc21 [Example 11, 1-(tert-Butyl)-3-methyl-7-(4-((4-(methylsulfonyl)piperidin-1-yl)methyl)phenyl)-3,6-dihydroimidazo[4,5-d]pyrrolo[2,3-b]pyridin-2(1H)-one]
IC50 [1]: 10 to 100 nM | IC50 [2]: 10 to 100 nM | IC50 [3]: 10 to 100 nM

Cn1c(=O)n(C2CCCCC2)c2c3cc(-c4cnn(CS(C)(=O)=O)c4)[nH]c3ncc21 [Example 12, 1-Cyclohexyl-3-methyl-7-(1-((methylsulfonyl)methyl)-1H-pyrazol-4-yl)-3,6-dihydroimidazo[4,5-d]pyrrolo[2,3-b]pyridin-2(1H)-one]
IC50 [1]: 100 to 500 nM | IC50 [2]: 10 to 100 nM | IC50 [3]: 10 to 100 nM

CCn1c(=O)n(C2CCCC2)c2c3cc(-c4ccc(CN5CCC(S(C)(=O)=O)CC5)cc4)[nH]c3ncc21 [Example 13, 1-Cyclopentyl-3-ethyl-7-(4-((4-(methylsulfonyl)piperidin-1-yl)methyl)phenyl)-3,6-dihydroimidazo[4,5-d]pyrrolo[2,3-b] pyridin-2(1H)-one]
IC50 [1]: > 1000 nM | IC50 [2]: > 1000 nM | IC50 [3]: 100 to 500 nM

Cn1cc(-c2cc3c(ncc4c3[nH]c(=O)n4C)[nH]2)cn1 [Example 14, 3-Methyl-7-(1-methyl-1H-pyrazol-4-yl)-3,6-dihydroimidazo[4,5-d]pyrrolo[2,3-b]pyridin-2(1H)-one]
IC50 [1]: > 1000 nM | IC50 [2]: > 1000 nM | IC50 [3]: 100 to 500 nM

Cn1c(=O)n(C2CCCOC2)c2c3cc(-c4ccc(CN5CCC(S(C)(=O)=O)CC5)cc4)[nH]c3ncc21 (stereo not drawn) [Example 15, 3-Methyl-7-(4-((4-(methylsulfonyl)piperidin-1-yl)methyl)phenyl)-1-(tetrahydro-2H-pyran-3-yl)-3,6-dihydroimidazo[4,5-d]pyrrolo[2,3-b]pyridin-2(1H)-one]
IC50 [1]: 100 to 500 nM | IC50 [2]: 100 to 500 nM | IC50 [3]: 10 to 100 nM

CCN1CCN(c2ccc(-c3cc4c(ncc5c4n(Cc4cnn(C)c4)c(=O)n5C)[nH]3)cc2)CC1 [Example 16, 7-(4-(4-Ethylpiperazin-1-yl)phenyl)-3-methyl-1-((1-methyl-1H-pyrazol-4-yl)methyl)-3,6-dihydroimidazo[4,5-d]pyrrolo[2,3-b]pyridin-2(1H)-one]
IC50 [1]: > 1000 nM | IC50 [2]: > 1000 nM | IC50 [3]: 500 to 1000 nM
